In patent publication US11612606B2, “8-aminoisoquinoline compounds and uses thereof” (priority 2018, dated 2023):
Read-outs that look alike come from different tables or passages of the source.

Biological target: HPK full length, T165E S171E (Homo sapiens (Human), UniProt Q92918, S171E/T165E)
Experiment: HPK1-FL HTRF enzymatic assay ("HTRF")
Format: biochemical
Settings: ATP 1 mM
Outline: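 Full-length HPK1 (T165E/S171E) was preincubated 30 min with compound, then reacted 60 min with biotin-SLP-76 and 1 mM ATP. Phospho-SLP-76 was detected by HTRF (Eu-anti-pSLP76 antibody, SA-XL665) after a further 60 min.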

Sequence of HPK full length, T165E S171E (Q92918 whole entry T165E/S171E, looked up): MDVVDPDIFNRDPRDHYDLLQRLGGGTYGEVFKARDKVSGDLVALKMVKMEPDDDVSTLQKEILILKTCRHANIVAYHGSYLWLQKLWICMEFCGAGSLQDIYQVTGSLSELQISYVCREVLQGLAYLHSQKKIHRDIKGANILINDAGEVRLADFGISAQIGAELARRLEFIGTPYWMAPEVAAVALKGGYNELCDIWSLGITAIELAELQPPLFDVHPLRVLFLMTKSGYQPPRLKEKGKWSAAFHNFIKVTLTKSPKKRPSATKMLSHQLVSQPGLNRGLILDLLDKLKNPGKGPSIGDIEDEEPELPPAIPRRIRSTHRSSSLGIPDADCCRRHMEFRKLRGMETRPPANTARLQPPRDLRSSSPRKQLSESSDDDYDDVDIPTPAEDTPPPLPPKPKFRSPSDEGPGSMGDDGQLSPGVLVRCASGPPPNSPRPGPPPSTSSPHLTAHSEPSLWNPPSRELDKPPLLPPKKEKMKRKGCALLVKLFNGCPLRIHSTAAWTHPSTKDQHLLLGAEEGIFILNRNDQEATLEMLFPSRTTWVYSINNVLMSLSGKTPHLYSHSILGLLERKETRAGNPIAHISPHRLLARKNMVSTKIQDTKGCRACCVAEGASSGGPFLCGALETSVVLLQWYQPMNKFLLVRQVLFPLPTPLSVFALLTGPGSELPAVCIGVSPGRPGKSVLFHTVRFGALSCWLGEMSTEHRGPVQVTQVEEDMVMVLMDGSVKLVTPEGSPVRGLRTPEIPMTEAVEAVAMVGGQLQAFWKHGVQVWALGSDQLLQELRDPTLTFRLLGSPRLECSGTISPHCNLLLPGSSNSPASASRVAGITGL

Compound: Cc1c(-c2cc3cc(NC(=O)OC4CC5(CCNCC5)C4)ncc3c(N)c2F)cnc2c1NCCO2 [Compound 580, 7-Azaspiro[3.5]nonan-2-yl (8-amino-7-fluoro-6-(8-methyl-2,3-dihydro-1H-pyrido[2,3-b][1,4]oxazin-7-yl)isoquinolin-3-yl)carbamate]
- Ki (read-out: HPK1 Ki): < 13 pM

Compound: Cc1c(-c2cc3cc(NC(=O)SC4CCOCC4)ncc3c(N)c2F)cnc2c1NCCO2 [Compound 601, S-Tetrahydropyran-4-yl N-[8-amino-7-fluoro-6-(8-methyl-2,3-dihydro-1H-pyrido[2,3-b][1,4]oxazin-7-yl)-3-isoquinolyl]carbamothioate]
- Ki (read-out: HPK1 Ki): < 13 pM

Compound: Cc1c(-c2cc3cc(NC(=O)NC4CC4)ncc3c(N)c2F)cnc2c1NCCO2 [Compound 702, 1-(8-Amino-7-fluoro-6-(8-methyl-2,3-dihydro-1H-pyrido[2,3-b][1,4]oxazin-7-yl)isoquinolin-3-yl)-3-cyclopropylurea]
- Ki (read-out: HPK1 Ki): < 13 pM

Compound: CNC(=O)Nc1cc2cc(-c3cnc4c(c3C)NCCO4)c(F)c(N)c2cn1 [Compound 704, 1-(8-Amino-7-fluoro-6-(8-methyl-2,3-dihydro-1H-pyrido[2,3-b][1,4]oxazin-7-yl)isoquinolin-3-yl)-3-methylurea]
- Ki (read-out: HPK1 Ki): < 13 pM

Compound: CNC(=O)Nc1cc2cc(-c3cnc4c(c3C)NCCC4)c(F)c(N)c2cn1 [Compound 705, 1-[8-Amino-7-fluoro-6-(4-methyl-5,6,7,8-tetrahydro-1,5-naphthyridin-3-yl)-3-isoquinolyl]-3-methyl-urea]
- Ki (read-out: HPK1 Ki): 150 pM

Compound: Cc1c(-c2cc3cc(NC(=O)NC4CCCC4)ncc3c(N)c2F)cnc2c1NCCO2 [Compound 706, 1-(8-Amino-7-fluoro-6-(8-methyl-2,3-dihydro-1H-pyrido[2,3-b][1,4]oxazin-7-yl)isoquinolin-3-yl)-3-cyclopentylurea]
- Ki (read-out: HPK1 Ki): < 13 pM

Compound: Cc1c(-c2cc3cc(NC(=O)NC4CCC4)ncc3c(N)c2F)cnc2c1NCCO2 [Compound 707, 1-(8-Amino-7-fluoro-6-(8-methyl-2,3-dihydro-1H-pyrido[2,3-b][1,4]oxazin-7-yl)isoquinolin-3-yl)-3-cyclobutylurea]
- Ki (read-out: HPK1 Ki): < 13 pM

Compound: Cc1c(-c2cc3cc(NC(=O)NC4CC5(C4)CN(CC(F)(F)F)C5)ncc3c(N)c2F)cnc2c1NCCO2 [Compound 708, 1-(8-Amino-7-fluoro-6-(8-methyl-2,3-dihydro-1H-pyrido[2,3-b][1,4]oxazin-7-yl)isoquinolin-3-yl)-3-(2-(2,2,2-trifluoroethyl)-2-azaspiro[3.3]heptan-6-yl)urea]
- Ki (read-out: HPK1 Ki): < 13 pM

Compound: CC(=O)N1CC2(CC(NC(=O)Nc3cc4cc(-c5cnc6c(c5C)NCCO6)c(F)c(N)c4cn3)C2)C1 [Compound 709, 1-(2-Acetyl-2-azaspiro[3.3]heptan-6-yl)-3-(8-amino-7-fluoro-6-(8-methyl-2,3-dihydro-1H-pyrido[2,3-b][1,4]oxazin-7-yl)isoquinolin-3-yl)urea]
- Ki (read-out: HPK1 Ki): < 13 pM

Compound: Cc1c(-c2cc3cc(NC(=O)N[C@H]4[C@@H]5COC[C@@H]54)ncc3c(N)c2F)cnc2c1NCCO2 [Compound 713a, 1-(8-Amino-7-fluoro-6-(8-methyl-2,3-dihydro-1H-pyrido[2,3-b][1,4]oxazin-7-yl)isoquinolin-3-yl)-3-((1R,5S,6r)-3-oxabicyclo[3.1.0]hexan-6-yl)urea]
- Ki (read-out: HPK1 Ki): < 13 pM

Compound: Cc1c(-c2cc3cc(NC(=O)NC4CC(F)(F)C4)ncc3c(N)c2F)cnc2c1NCCO2 [Compound 714, 1-(8-Amino-7-fluoro-6-(8-methyl-2,3-dihydro-1H-pyrido[2,3-b][1,4]oxazin-7-yl)isoquinolin-3-yl)-3-(3,3-difluorocyclobutyl)urea]
- Ki (read-out: HPK1 Ki): < 13 pM

Compound: Cc1c(-c2cc3cc(NC(=O)N[C@@H]4CCOC4)ncc3c(N)c2F)cnc2c1NCCC2 [Compound 719a, (R)-1-(8-Amino-7-fluoro-6-(4-methyl-5,6,7,8-tetrahydro-1,5-naphthyridin-3-yl)isoquinolin-3-yl)-3-(tetrahydrofuran-3-yl)urea]
- Ki (read-out: HPK1 Ki): 16 pM

Compound: CCNC(=O)Nc1cc2cc(-c3cnc4c(c3C)NCCO4)c(F)c(N)c2cn1 [Compound 720, 1-(8-Amino-7-fluoro-6-(8-methyl-2,3-dihydro-1H-pyrido[2,3-b][1,4]oxazin-7-yl)isoquinolin-3-yl)-3-ethylurea]
- Ki (read-out: HPK1 Ki): < 13 pM

Compound: Cc1c(-c2cc3cc(NC(=O)NC4CN(CC(F)(F)F)C4)ncc3c(N)c2F)cnc2c1NCCO2 [Compound 721, 1-(8-Amino-7-fluoro-6-(8-methyl-2,3-dihydro-1H-pyrido[2,3-b][1,4]oxazin-7-yl)isoquinolin-3-yl)-3-(1-(2,2,2-trifluoroethyl)azetidin-3-yl)urea]
- Ki (read-out: HPK1 Ki): < 13 pM

Compound: Cc1c(-c2cc3cc(NC(=O)N[C@@H]4CCC[C@@H]4F)ncc3c(N)c2F)cnc2c1NCCO2 [Compound 727a, 1-[8-Amino-7-fluoro-6-(8-methyl-2,3-dihydro-1H-pyrido[2,3-b][1,4]oxazin-7-yl)-3-isoquinolyl]-3-[(1R,2S)-2-fluorocyclopentyl]urea]
- Ki (read-out: HPK1 Ki): < 13 pM

Compound: CO[C@@H]1CC[C@@H](NC(=O)Nc2cc3cc(-c4cnc5c(c4C)NCCO5)c(F)c(N)c3cn2)C1 [Compound 730a, 1-(8-amino-7-fluoro-6-(8-methyl-2,3-dihydro-1H-pyrido[2,3-b][1,4]oxazin-7-yl)isoquinolin-3-yl)-3-((1R,3R)-3-methoxycyclopentyl)urea]
- Ki (HPK1 Ki): < 13 pM

Compound: CO[C@H]1CC[C@H](NC(=O)Nc2cc3cc(-c4cnc5c(c4C)NCCO5)c(F)c(N)c3cn2)C1 [Compound 730b, 1-(8-amino-7-fluoro-6-(8-methyl-2,3-dihydro-1H-pyrido[2,3-b][1,4]oxazin-7-yl)isoquinolin-3-yl)-3-((1S,3S)-3-methoxycyclopentyl)urea]
- Ki (HPK1 Ki): < 13 pM

Compound: CO[C@H]1CC[C@@H](NC(=O)Nc2cc3cc(-c4cnc5c(c4C)NCCO5)c(F)c(N)c3cn2)C1 [Compound 730c, 1-(8-amino-7-fluoro-6-(8-methyl-2,3-dihydro-1H-pyrido[2,3-b][1,4]oxazin-7-yl)isoquinolin-3-yl)-3-((1R,3S)-3-methoxycyclopentyl)urea]
- Ki (HPK1 Ki): < 13 pM

Compound: CO[C@@H]1CC[C@H](NC(=O)Nc2cc3cc(-c4cnc5c(c4C)NCCO5)c(F)c(N)c3cn2)C1 [Compound 730d, 1-(8-amino-7-fluoro-6-(8-methyl-2,3-dihydro-1H-pyrido[2,3-b][1,4]oxazin-7-yl)isoquinolin-3-yl)-3-((1S,3R)-3-methoxycyclopentyl)urea]
- Ki (HPK1 Ki): < 13 pM

Compound: Cc1c(-c2cc3cc(NC(=O)N[C@H]4C[C@H](F)C4)ncc3c(N)c2F)cnc2c1NCCC2 [Compound 732a, 1-(8-amino-7-fluoro-6-(4-methyl-5,6,7,8-tetrahydro-1,5-naphthyridin-3-yl)isoquinolin-3-yl)-3-((1r,3r)-3-fluorocyclobutyl)urea]
- Ki (read-out: HPK1 Ki): < 13 pM

Compound: CO[C@H]1C[C@H](NC(=O)Nc2cc3cc(-c4cnc5c(c4C)NCCO5)c(F)c(N)c3cn2)C1 [Compound 733a, 1-[8-Amino-7-fluoro-6-(8-methyl-2,3-dihydro-1H-pyrido[2,3-b][1,4]oxazin-7-yl)-3-isoquinolyl]-3-(3-methoxycyclobutyl)urea]
- Ki (read-out: HPK1 Ki): < 13 pM

Compound: Cc1c(-c2cc3cc(NC(=O)N[C@H]4C[C@H]4F)ncc3c(N)c2F)cnc2c1NCCO2 [Compound 734a, 1-[8-Amino-7-fluoro-6-(8-methyl-2,3-dihydro-1H-pyrido[2,3-b][1,4]oxazin-7-yl)-3-isoquinolyl]-3-[(1S,2R)-2-fluorocyclopropyl]urea]
- Ki (read-out: HPK1 Ki): < 13 pM

Compound: Cc1c(-c2cc3cc(NC(=O)NC4CC5(C4)CN(CC(F)F)C5)ncc3c(N)c2F)cnc2c1NCCC2 [Compound 739, 1-(8-Amino-7-fluoro-6-(4-methyl-5,6,7,8-tetrahydro-1,5-naphthyridin-3-yl)isoquinolin-3-yl)-3-(2-(2,2-difluoroethyl)-2-azaspiro[3.3]heptan-6-yl)urea]
- Ki (read-out: HPK1 Ki): < 13 pM

Compound: Cc1c(-c2cc3cc(NC(=O)N[C@H]4C[C@]5(CCOC5)C4)ncc3c(N)c2F)cnc2c1NCCC2 [Compound 740a, 1-(8-Amino-7-fluoro-6-(4-methyl-5,6,7,8-tetrahydro-1,5-naphthyridin-3-yl)isoquinolin-3-yl)-3-((2s,4s)-6-oxaspiro[3.4]octan-2-yl)urea]
- Ki (read-out: HPK1 Ki): < 13 pM

Compound: Cc1c(-c2cc3cc(NC(=O)N[C@H]4C[C@@]5(CCOC5)C4)ncc3c(N)c2F)cnc2c1NCCC2 [Compound 740b, 1-(8-Amino-7-fluoro-6-(4-methyl-5,6,7,8-tetrahydro-1,5-naphthyridin-3-yl)isoquinolin-3-yl)-3-((2r,4r)-6-oxaspiro[3.4]octan-2-yl)urea]
- Ki (read-out: HPK1 Ki): < 13 pM

Compound: Cc1c(-c2cc3cc(NC(=O)N(C)C)ncc3c(N)c2F)cnc2c1NCCO2 [Compound 742, 3-(8-Amino-7-fluoro-6-(8-methyl-2,3-dihydro-1H-pyrido[2,3-b][1,4]oxazin-7-yl)isoquinolin-3-yl)-1,1-dimethylurea]
- Ki (read-out: HPK1 Ki): 1120 pM

Compound: Cc1c(-c2cc3cc(NC(=O)N4CCCC4)ncc3c(N)c2F)cnc2c1NCCO2 [Compound 745, N-(8-Amino-7-fluoro-6-(8-methyl-2,3-dihydro-1H-pyrido[2,3-b][1,4]oxazin-7-yl)isoquinolin-3-yl)pyrrolidine-1-carboxamide]
- Ki (read-out: HPK1 Ki): 290 pM

Compound: Cc1c(-c2cc3cc(NC(=O)NC(C)C)ncc3c(N)c2F)cnc2c1NCCO2 [Compound 746, 1-(8-Amino-7-fluoro-6-(8-methyl-2,3-dihydro-1H-pyrido[2,3-b][1,4]oxazin-7-yl)isoquinolin-3-yl)-3-isopropylurea]
- Ki (read-out: HPK1 Ki): < 13 pM

Compound: Cc1c(-c2cc3cc(NC(=O)N[C@H]4C[C@@H](F)C4)ncc3c(N)c2F)cnc2c1NCCO2 [Compound 748a, 1-(8-Amino-7-fluoro-6-(8-methyl-2,3-dihydro-1H-pyrido[2,3-b][1,4]oxazin-7-yl)isoquinolin-3-yl)-3-((1s,3s)-3-fluorocyclobutyl)urea]
- Ki (read-out: HPK1 Ki): < 13 pM

Compound: Cc1c(-c2cc3cc(NC(=O)N[C@H]4C[C@H](F)C4)ncc3c(N)c2F)cnc2c1NCCO2 [Compound 748b, 1-(8-Amino-7-fluoro-6-(8-methyl-2,3-dihydro-1H-pyrido[2,3-b][1,4]oxazin-7-yl)isoquinolin-3-yl)-3-((1r,3r)-3-fluorocyclobutyl)urea]
- Ki (read-out: HPK1 Ki): 18 pM
